Assay results as given in ChEMBL document CHEMBL4765469, “2-((3,5-Dinitrobenzyl)thio)quinazolinones: Potent Antimycobacterial Agents Activated by Deazaflavin (F)-Dependent Nitroreductase (Ddn)” (J Med Chem, 2021).
≈ marks a conversion by molar mass, not a printed value.

Columns and labels:
[1] = tested on: Mycobacterium tuberculosis; test: Antitubercular activity against Mycobacterium tuberculosis H37Rv ATCC 27294 grown under Middlebrook 7H9 Broth assessed as inhibition of all visible growth incubated for 7 to 14 days; assay type: functional; conditions: time 7-14 day
[2] = Cytotoxicity in human MRC5 cells by neutral red uptake assay; assay type: cell-based
[3] = tested on: Mycobacterium tuberculosis; test: Antitubercular activity against Mycobacterium tuberculosis H37Rv ATCC 27294 grown under 7H9/ADC assessed as inhibition of all visible growth incubated for 7 to 14 days; assay type: functional; conditions: time 7-14 day
[4] = tested on: Mycobacterium tuberculosis; test: Antitubercular activity against Mycobacterium tuberculosis H37Rv ATCC 27294 grown under GAST/Fe medium assessed as inhibition of all visible growth incubated for 7 to 14 days; assay type: functional; conditions: time 7-14 day
[5] = tested on: Mycobacterium tuberculosis; test: Antitubercular activity against Mycobacterium tuberculosis H37Rv ATCC 27294 grown under 7H9/ glucose liquid culture in presence of BSA assessed as inhibition of all visible growth incubated for 7 to 14 days; assay type: functional; conditions: time 7-14 day
[6] = tested on: Mycobacterium tuberculosis; test: Ratio of MIC for antitubercular activity against Mycobacterium tuberculosis H37Rv ATCC 27294 grown under 7H9/ glucose liquid culture in presence of BSA to MIC for antitubercular activity against Mycobacterium tuberculosis H37Rv ATCC 27294 grown under 7H9/ glucose liquid culture; assay type: functional; conditions: read-out: MIC>99
[7] = tested on: Mycobacterium tuberculosis; test: Antitubercular activity against Mycobacterium tuberculosis H37Rv; assay type: functional
[8] = tested on: Mycobacterium tuberculosis; test: Antitubercular activity against Mycobacterium tuberculosis 14A1 deficient in nitroreductase rv3547 assessed as inhibition of all visible growth grown under 7H9/ glucose liquid culture incubated for 7 to 14 days; assay type: functional; conditions: time 7-14 day
[9] = Inhibition of Mycobacterium tuberculosis thymidylate kinase in presence of ATP, dTMP, NADH and phosphoenol pyruvate by spectrophotometric assay
[10] = Inhibition of Mycobacterium tuberculosis thymidylate kinase
[11] = Genotoxicity in Salmonella typhimurium TA98 up to 349 uM incubated for 48 hrs in absence of rat liver S9 fraction by Ames test; assay type: toxicity; conditions: salmonella enterica subsp. enterica serovar typhimurium, s9, 48 h

Structure (SMILES)	MIC99 [1]	CC50 [2]	also measured
Oc1nc(SCc2cccc(Cl)c2)nc2ccccc12	3.13 µM (≈ 0.948 µg/mL)	> 64 µM	MIC99 [3]: > 50 µM; MIC99 [4]: 19 µM (≈ 5.75 µg/mL); MIC99 [5]: > 50 µM; MIC ratio, with BSA / without BSA [6]: > 16 µM
COc1cccc(CSc2nc3ccccc3c(=O)[nH]2)c1	0.78 µM (≈ 0.233 µg/mL)	> 64 µM	MIC99 [3]: > 50 µM; MIC99 [4]: 50 µM (≈ 14.9 µg/mL); MIC99 [5]: > 50 µM; MIC ratio, with BSA / without BSA [6]: > 64 µM
O=c1[nH]c(SCc2ccc(Cl)c(Cl)c2)nc2ccccc12	> 50 µM	> 64 µM	–
O=c1[nH]c(SCc2cccc([N+](=O)[O-])c2)nc2ccccc12	> 50 µM	> 64 µM	–
O=c1[nH]c(SCc2cc([N+](=O)[O-])cc([N+](=O)[O-])c2)nc2ccncc12	> 50 µM	> 64 µM	–
O=c1[nH]c(SCc2ccc(-c3ccccc3)cc2)nc2ccccc12	> 50 µM	> 64 µM	–
O=c1[nH]c(SCc2cc([N+](=O)[O-])cc(C(F)(F)F)c2)nc2ccccc12	> 50 µM	> 64 µM	–
CCOC(=O)C1=C(NC(=O)c2c(F)c(F)c(F)c(F)c2F)OC2CN(CC)CCC12 (centres undefined)	–	–	MIC [7]: 0.69 µM
O=c1[nH]c(SCc2cc([N+](=O)[O-])cc([N+](=O)[O-])c2)nc2cccc(Cl)c12	≥ 50 µM	> 64 µM	–
COc1ccccc1CSc1nc2ccccc2c(=O)[nH]1	> 50 µM	–	–
O=c1[nH]c(SCc2ccc([N+](=O)[O-])cc2)nc2ccccc12	≥ 50 µM	> 64 µM	–
O=c1[nH]c(SCc2cc([N+](=O)[O-])cc([N+](=O)[O-])c2)nc2ccc(N3CCOCC3)cc12	4.7 µM (≈ 2.08 µg/mL)	> 64 µM	MIC99 [4]: 3.13 µM (≈ 1.39 µg/mL); MIC99 [5]: 3.13 µM; MIC ratio, with BSA / without BSA [6]: 0.66 µM; MIC99 [8]: 19 µM (≈ 8.43 µg/mL)
N#Cc1c(-c2cccc(Br)c2)nc(SCc2ccccc2)[nH]c1=O	25 µM (≈ 9.96 µg/mL)	> 36 µM	IC50 [9]: 49 µM
O=c1[nH]c(SCc2ccc([N+](=O)[O-])o2)nc2ccccc12	> 50 µM	35 µM	–
O=c1[nH]c(SCc2cc([N+](=O)[O-])cc([N+](=O)[O-])c2)nc2cnccc12	> 50 µM	> 64 µM	–
O=C(CSc1nc2c(F)cccc2c(=O)[nH]1)NC1CCC(F)(F)CC1	–	–	MIC [7]: 0.09 µM
O=c1[nH]c(SCc2c([N+](=O)[O-])cccc2[N+](=O)[O-])nc2ccccc12	> 50 µM	> 64 µM	–
O=c1[nH]c(SCc2cc([N+](=O)[O-])cc([N+](=O)[O-])c2)nc2ncccc12	≥ 50 µM	> 64 µM	–
COc1cccc(-c2cc(SC)c(C#N)c(=O)[nH]2)c1	–	–	IC50 [10]: 1.5 µM; MIC [7]: > 64 µM
O=c1[nH]c(SCc2ccccc2Cl)nc2ccccc12	2.3 µM (≈ 0.696 µg/mL)	> 65 µM	MIC99 [3]: > 50 µM; MIC99 [4]: 37 µM (≈ 11.2 µg/mL); MIC99 [5]: > 50 µM; MIC ratio, with BSA / without BSA [6]: > 21.7 µM
O=[N+]([O-])c1ccc2c(c1)Cc1ccccc1-2 [2-NITROFLUORENE]	–	–	Activity [11]: Toxic
O=c1[nH]c(SCc2ccccc2)nc2ccccc12	12.5 µM (≈ 3.35 µg/mL)	> 64 µM	MIC99 [3]: > 50 µM; MIC99 [4]: 19 µM (≈ 5.1 µg/mL); MIC99 [5]: > 50 µM; MIC ratio, with BSA / without BSA [6]: > 4 µM
CCOC(=O)c1c(-c2ccccc2)oc2ccc(O)c(CN3CCC(C)CC3)c12	–	–	MIC [7]: 1 µg/mL
O=c1[nH]c(SCc2cc([N+](=O)[O-])cc([N+](=O)[O-])c2)nc2ccc(Cl)cc12	0.78 µM (≈ 0.306 µg/mL)	> 64 µM	MIC99 [3]: 4.7 µM (≈ 1.85 µg/mL); MIC99 [4]: 0.2 µM (≈ 0.0786 µg/mL); MIC99 [5]: 3.13 µM; MIC ratio, with BSA / without BSA [6]: 4 µM
O=c1[nH]c(SCc2cc([N+](=O)[O-])cc([N+](=O)[O-])c2)nc2cccnc12	19 µM (≈ 6.83 µg/mL)	> 64 µM	MIC99 [4]: 12.5 µM (≈ 4.49 µg/mL); MIC99 [5]: > 50 µM; MIC ratio, with BSA / without BSA [6]: > 2.6 µM; MIC99 [8]: 50 µM (≈ 18 µg/mL)
